The values below come from paper PMC12302228 (RSC Medicinal Chemistry, 2025).

The structures appear in SMILES notation. Like-named read-outs stand apart in the source and are kept apart here.

The test system of one data set is MCF7. Kind of data set: Antiproliferative activity, SRB assay. The class given is cell-based, human. The settings on record: Homo sapiens, MCF7, 48 h, read-out: IC50 MCF7, 48 h of treatment; mean ± SEM. Background: In SRB staining, fixed cells bind dye roughly in proportion to their protein.
The next data set has as its system M21. Kind of data set: Antiproliferative activity, SRB assay. Format: cell-based, human. The following applies: Homo sapiens, M21, 48 h, read-out: IC50 M21, 48 h of treatment; mean ± SEM.
For another data set, the system named is HT-29. Kind of data set: Antiproliferative activity, SRB assay. Format: cell-based, human. The following applies: Homo sapiens, HT-29, 48 h, read-out: IC50 HT-29, 48 h of treatment; mean ± SEM.
Another data set concerns THP-1. Kind of data set: Antiproliferative activity, MTT assay. Format: cell-based, human. The following applies: mean ± SEM.
A further data set deals with HL-60. Description: Antiproliferative activity, MTT assay. Format: cell-based, human. The settings on record: Homo sapiens, HL-60, 48 h, read-out: IC50 HL-60, 48 h of treatment; mean ± SEM.
The test system of another data set is histone H2AX. Description: H2AX phosphorylation, immunofluorescence in M21 cells. The class given is cell-based, human. The following applies: 24 h at 2-fold IC50.
The target in a further data set is human DHODH (Homo sapiens, UniProt Q02127). Kind of data set: Human DHODH colorimetric. Format: biochemical.
The subject of the next data set is MOLM-13 cells. Description: Differentiation of AML cells, CD11b/CD14 flow cytometry. The class given is cell-based, human. The following applies: 120 h at 2-fold IC50. In general terms: Flow cytometry measures light scatter and fluorescence of single cells or particles in a stream.
The next data set has as its system THP-1 cells. Described as above. The class given is cell-based, human. The following applies: 120 h.
Data set [1] in a line: Metabolic stability in liver microsomes. The class given is in vitro ADME, mouse. The settings on record: for half-life at 4 µM / microsomal CLint at 4 µM: mouse, liver microsomes, pH 7.4; for Clearance category MLM: ranked by CLint. On the technique in general: Liver microsomes are a subcellular fraction often used to study metabolism.
A short description of data set [2]: Metabolic stability in liver microsomes. Format: in vitro ADME. The settings on record: rat, pH 7.4.
The nature of data set [3]: Metabolic stability in liver microsomes. The settings on record: human, pH 7.4. Format: in vitro ADME.
A short description of another data set: physchem. The following applies: ultrapure water, 37 °C, kinetic from dmso stock.
The mark [4] stands for this setting: read-out: IC50 THP-1, 48 h of treatment.

Chain of human DHODH (Q02127 whole entry): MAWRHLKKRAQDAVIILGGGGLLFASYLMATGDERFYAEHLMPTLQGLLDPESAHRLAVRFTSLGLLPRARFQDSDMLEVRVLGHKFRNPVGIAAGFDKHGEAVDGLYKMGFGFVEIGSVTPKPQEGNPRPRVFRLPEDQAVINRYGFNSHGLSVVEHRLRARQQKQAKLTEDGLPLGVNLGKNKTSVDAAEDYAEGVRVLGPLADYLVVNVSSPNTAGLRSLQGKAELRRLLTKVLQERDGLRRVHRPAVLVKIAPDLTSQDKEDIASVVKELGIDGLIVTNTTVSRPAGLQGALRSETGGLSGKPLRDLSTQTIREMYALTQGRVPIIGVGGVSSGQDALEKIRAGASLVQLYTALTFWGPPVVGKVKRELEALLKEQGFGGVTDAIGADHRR

Take `CCNC(=O)Nc1ccc(S(=O)(=O)Oc2cccnc2C(C)C)cc1.Cl` [Compound 21, 2-Isopropylpyridin-3-yl 4-(3-ethylureido)benzenesulfonate hydrochloride]: the IC50 with MCF7 is 24 ± 3 µM; with M21, 11 ± 1 µM; with HT-29, 8 ± 0.3 µM; in the data set with THP-1 (setting [4]) it was 6 ± 2 µM; in the data set with HL-60, 50 ± 10 µM; against human DHODH, 0.012 µM. For the same molecule, in the data set on histone H2AX, the “Phosphorylation of H2AX into γH2AX (γH2AX foci)” value is listed as “promote the phosphorylation of H2AX into γH2AX”. Further, in the data set with MOLM-13 cells, the “CD11b expression, share of the cell population” value (shortened to “CD11b expression, share”) worked out at 26%. For the same molecule, in the data set on THP-1 cells, the “CD11b and CD14 positivity, share of the cell population” value is given as 57%. Further, the results for the half-life at 4 µM in data set [1], in [2] and in [3] were 0.95 ± 0.0667 h, 2.5 ± 0.5 h and 1.48 ± 0.0333 h, respectively. The microsomal CLint at 4 µM in data set [1] was 25 ± 2 µL/min/mg; in [2], 11 ± 2 µL/min/mg; in [3], 15.7 ± 0.3 µL/min/mg. Besides, the “Clearance category MLM” value in [1] is recorded as “medium (medium clearance category for MLM (13.1 < CLint < 71.1))”. The molecule further yielded a solubility at 24 h in the data set “physchem” of 188 ± 1 µg/mL.
As for `Cc1c(-c2ccc(-c3ccccc3F)cc2)nc2ccc(F)cc2c1C(=O)O` [Brequinar, reference compound], the IC50 was found to be 3.8 ± 0.9 µM with MCF7; 0.46 ± 0.05 µM with M21; 0.69 ± 0.07 µM with HT-29; 0.17 ± 0.04 µM with THP-1 (Homo sapiens, THP-1, 48 h, read-out: IC50 THP-1, 48 h of treatment). In addition, the “CD11b expression, share” value in the data set on MOLM-13 cells was determined as 34%.
`CCNC(=O)Nc1ccc(S(=O)(=O)Oc2cccnc2I)cc1.Cl` [Compound 20, 2-Iodopyridin-3-yl 4-(3-ethylureido)benzenesulfonate hydrochloride]: the IC50 stood at 12 ± 1 µM with MCF7; 7.7 ± 0.7 µM in the data set on M21; 6.8 ± 0.6 µM in the data set on HT-29; 1.1 ± 0.5 µM with THP-1 (setting [4]); 37 ± 6 µM in the data set with HL-60; 0.031 µM on human DHODH. Also, the “Phosphorylation of H2AX into γH2AX (γH2AX foci)” value in the data set on histone H2AX is reported as “promote the phosphorylation of H2AX into γH2AX”. In the data set with MOLM-13 cells, the “CD11b expression, share” value was found to be 38%. Moreover, the half-life at 4 µM in [1] is 1.33 ± 0.167 h; in data set [2] it was 3.17 ± 0.333 h; in data set [3] it was 3.6 ± 0.167 h. The values for the microsomal CLint at 4 µM in data set [1], in [2] and in data set [3] were 18 ± 2 µL/min/mg, 7.4 ± 0.6 µL/min/mg and 6.5 ± 0.3 µL/min/mg, respectively. Further, in data set [1], the “Clearance category MLM” value was “medium (medium clearance category for MLM (13.1 < CLint < 71.1))”. This molecule also showed a solubility at 24 h in the data set “physchem” of 190 ± 10 µg/mL.

As a reminder, the IC50 is the concentration needed to halve the response being measured. The term half-life denotes the time needed for the level to fall by half in the phase considered. A lower half-life goes with fast loss. In general, microsomal CLint refers to the capacity of the preparation to metabolise the compound, expressed as a volume cleared per time. The term solubility denotes the concentration that dissolves in the medium under given conditions.
